Measured values from patent publication US20110136245A1, “SYNERGISTIC INTERACTIONS OF PHENOLIC COMPOUNDS FOUND IN FOOD” (priority 2009, published 2011).

Experiments:
[1] = ORAC assay, phenolic compounds found in strawberries; format: biochemical; details: strawberry combinations and individual antioxidants; values per gram
Text: FIG. 5 provides the structures. […] Solubility was checked after thawing and dilution. […] All possible combinations of two compounds were mixed on an equal volume basis after being prepared at the concentrations found in Table 4 to ensure relative concentrations were maintained. Mixtures were then further diluted to match the lowest individual compound molarity to fit the Trolox standard curve. […] The same pattern was repeated for combinations of four: the top three synergistic combinations of three were combined with all possible fourth compounds. No statistically significant increases in antioxidant capacity were found for combinations of four. […] Combinations were prepared on the same day of their ORAC assay. ORAC assays were carried out according to Dávalos et al. […] Parameters of the assay were as follows: reader temperature: 37 degrees C., cycle number, 120; cycle time, 60 seconds; shaking mode, 3 seconds of orbital shaking before each cycle. A fluorescence filter with an excitation wavelength of 485/20 nm and an emission wavelength of 520/20 nm was used. Samples were prepared in 96-well plates in a mirror fashion, based on a planned layout. Each mirrored duplicate was averaged and counted as one data point. All samples were measured in quadruplicate (eight wells total) to obtain necessary statistical power. […] The data were analyzed using a Microsoft Excel 2007 (Microsoft, Redmond, Wash., USA) spreadsheet to determine area under the curve and to convert the data to Trolox equivalents based on the Trolox standard curve. […] Likewise, for combinations of three and four, the difference was calculated by subtracting the average of the individual three or four compounds from the combination. […] Difference=(combination abc)−(combination ab+individual c) (7) Difference=(combination abcd)−(combination abc+d) (8)

[2] = marketed products and foods listed for comparison; cited from earlier work
[3] = marketed products and foods listed for comparison; cited from earlier work; remark: listed apart in the source
[4] = published values (Jorgensen & Skibsted 1998; Foley et al. 1999); cited from earlier work
[5] = Solubility on stock solution preparation; details: weighable concentrations, stock solution in methanol / NaOH
Method: Because of the high water content of oranges, no density adjustment was made. Compounds were prepared assuming 100 g was 100 mL in volume. All compounds except hesperidin and luteolin were weighed (10× to 1000× of Table 1 concentration to facilitate weighing) and dissolved in methanol. […] The phenolic stock solutions were stored in 1 mL aliquots at −20.C. Phenolics were brought to RT, vortexed, and diluted in 7:3 (v:v) acetone:water to match the fruit concentrations in Table 1. To fit the Trolox standard curve (see below for assay description), compounds were further diluted in 7:3 (v:v) acetone:water to the following molar concentrations prior to transfer to the 96-well plate: chlorogenic acid, 10.7 μM; hesperidin, 10.2 μM; luteolin, 2.45 μM; myricetin, 0.786 μM; naringenin, 2.61 μM; pcoumaric acid, 1.95 μM; and quercetin, 6.62 μM. Solubility was checked after thawing and dilution. All work involving phenolic compounds, fluorescein, and Trolox was performed in dark conditions to minimize degradation.
It was assumed that 1 g fruit puree was 1 ml in volume for sample preparation, as a density adjustment would not change relative concentrations that would be tested. All compounds except ellagic acid were weighed then dissolved in methanol. […] The phenolic stock solutions were stored in 1 mL aliquots at −20° C. […]

SMILES | ORAC Value (µmol Trolox equivalents/g) [1] [µmol Trolox equivalents/g] | one-electron reduction potential [4] [V] | also measured
O=c1oc2c(O)c(O)cc3c(=O)oc4c(O)c(O)cc1c4c23 [ellagic acid] | 7820 |  | 
O=C1O[C@H]([C@@H](O)CO)C(O)=C1O [ascorbic acid (vitamin C), ascorbic acid] |  |  | ORAC Value (μmol Trolox Equivalents/g of mixture) [2]: 2,000 μmol Trolox Equivalents/g of mixture; ORAC Value [3]: 2,000 mol Trolox Equivalents/g of mixture
O=c1c(O)c(-c2ccc(O)c(O)c2)oc2cc(O)cc(O)c12 [quercetin] |  | 0.29 | 
O=C(O)/C=C/c1ccc(O)cc1 [p-coumaric acid] | 20500 | 0.59 | 
O=c1c(O[C@@H]2O[C@H](CO)[C@@H](O)[C@H](O)[C@H]2O)c(-c2ccc(O)c(O)c2)oc2cc(O)cc(O)c12 [quercetin-3-glucoside] | 20300 |  | 
COc1ccc([C@@H]2CC(=O)c3c(O)cc(O[C@@H]4O[C@H](CO[C@@H]5O[C@@H](C)[C@H](O)[C@@H](O)[C@H]5O)[C@@H](O)[C@H](O)[C@H]4O)cc3O2)cc1O [hesperidin] |  |  | solubility [5]: only fully soluble at weighable concentrations in a basic solution
O=c1c(O)c(-c2ccc(O)cc2)oc2cc(O)cc(O)c12 [kaempferol] |  | 0.39 | 
